Source: patent US20130079370A1, “Method for the Inhibition of Deubiquitinating Activity” (priority 2011, published 2013)

Legend:
human 19S RP = biological target: T1, human 19S RP (Homo sapiens, UniProt P54578+Q9Y5K5); assay: De-ubiquitinase activity assay, Ub-AMC cleavage by 19S RP; type: biochemical; conditions: read-out: IC50, DUB activity by detection of Ub-AMC cleavage
T1 construct: purchased Boston Biochem E-366

[1] = tested on: FaDu head and neck carcinoma xenografts; assay: FaDu head and neck carcinoma xenografts in SCID mice; type: in vivo
Method: In vitro proteasome activity assays were performed in black 96-well microtitier plates using human 20S proteasome (Boston Biochem) in reaction buffer (25 mM Hepes, 0.5 mM EDTA, 0.03% SDS) with Suc-LLVY-AMC, Z-LLE-AMC or Boc-LRRAMC used as substrates for proteasome activity. De-ubiquitinase activity assays were performed with human 19S RP (Boston Biochem) with ubiquitin-AMC as substrate. For FaDu xenograft studies a 100-μl-cell suspension containing 1×10^6 cells was injected subcutaneously into the flank of SCID. Upon tumor take mice were randomized into control or treatment groups and administered with 5 mg kg^−1 b-AP15 or vehicle. In vivo levels of apoptosis and cell death were determined from the detection of caspase cleaved and total levels of cytokeratin-18 in plasma using M30 Apoptosense® and M65 ELISA®s assays (Peviva). […]
Animal experiments were conducted in full accordance with Swedish governmental statutory regulations on animal welfare under permission from local ethical committees. […] All mice were monitored and weighed daily. […] After injection, tumor growth was measured daily with calipers and the tumor volume calculated by the formula L×W^2×0.44. […] Nineteen days after malignant cell injection all of the mice were killed and histopathological manifestations of liver, ovary (target organs for this model of tumor) were evaluated and compared between groups. […]

HCT-116 cells = assay: DNA damage markers, immunoblot; type: cell-based; conditions: cell cycle arrest observed
Method: Treatment with b-AP15 increased their levels in a dose dependent manner without altering the levels of ornithine decarboxylase 1 (ODC1), an ubiquitin-independent proteasome substrate (8).
HCT-116 cells were treated with b-AP15 or doxorubicin (100 nM, as a positive control for genotoxic stress for 18 h) (FIG. 5). Cell lysates were immuno-blotted with antibodies for phosphorylated p53 and histone H2 Ax marker for DNA damage of for total levels of p53 and β-actin as loading controls.

MCF7 cells = assay: Microarray based gene expression analysis, chaperone genes; type: cell-based; set-up: key to Expression value HSPA4L / Expression value DNAJB1 / Expression value HSPD1 / Expression value DNAJB4 / Expression value HSPA1B / Expression value HSPH1 / Expression value HSPA4 / Expression value DNAJB9 / Expression value DNAJA1 / Expression value HSPA1A / Expression value HSPA6 / Expression value DNAJA4: MAS5-normalized array expression, arbitrary units
Method: The microarray based gene expression analysis and the Connectivity Map (CMAP) analysis was performed as previously described (40). Briefly, MCF7 cells were exposed to b-AP15 (1 μM, 6 h) or vehicle (0.1% DMSO, 6 h). RNA was isolated (RNeasy miniprep kit, Qiagen) followed by quality control, labelling and hybridization to Genome U133 Plus 2.0 arrays (Affymetrix Inc). Raw data was normalized using MasS (Affymetrix Inc.) and rank ordered. For selection of the 30 most induced (up tags) and the 30 most suppressed (down tags) transcripts the following criteria were used: Up tags, present call and expression over 300 arbitrary in the b-AP15 experiment; Down tags, present call after both b-AP15 and vehicle treatment, and expression over 300 arbitrary units in the vehicle experiment. For CMAP compatibility only tags (i.e. probes) present on HG U133A were used. Raw and normalized expression data have been deposited at Gene Expression Omnibus (http://www.ncbi.nlm. nih.gov/geo/) with accession number GSE24150.
Expression of chaperone genes observed in bAP15-treated cells (Table 1) is indicative of induction of a proteotoxic response.

C=CC(=O)N1C/C(=C\c2ccc([N+](=O)[O-])cc2)C(=O)/C(=C/c2ccc([N+](=O)[O-])cc2)C1 [b-AP15, (3E,5E)-3,5-bis[(4-nitrophenyl)methylidene]-1-(prop-2-enoyl)piperidin-4-one]
IC50 (human 19S RP): 2.1 ± 0.411 µM
treated/control tumor volume, T/C ([1]; 5 mg/kg s.c. daily for 10 days, p=<0.001): 0.4
difference in weight at the start and the endpoint between control and treated animals ([1]; FaDu xenograft): −1.3%
DNA damage markers phosphorylated p53 (Ser 15), H2AX (Ser 139) (HCT-116 cells): not associated with increased levels of DNA damage markers
Expression value HSPA6 (MCF7 cells; probe set 117_at, MCF7 cells, 1 μM, 6 h): 24149
Expression value DNAJB1 (MCF7 cells; probe set 200666_s_at, MCF7 cells, 1 μM, 6 h): 33900
Fold change DNAJB1 (MCF7 cells; probe set 200666_s_at, b-AP15 vs vehicle): 6
Expression value HSPA1A (MCF7 cells; probe set 200800_s_at, MCF7 cells, 1 μM, 6 h): 57478
Fold change HSPA1A (MCF7 cells; probe set 200800_s_at, b-AP15 vs vehicle): 4
Expression value DNAJA1 (MCF7 cells; probe set 200880_at, MCF7 cells, 1 μM, 6 h): 19970
Fold change DNAJA1 (MCF7 cells; probe set 200880_at, b-AP15 vs vehicle): 4
Expression value HSPA1B (MCF7 cells; probe set 202581_at, MCF7 cells, 1 μM, 6 h): 31068
Fold change HSPA1B (MCF7 cells; probe set 202581_at, b-AP15 vs vehicle): 5
Expression value DNAJB9 (MCF7 cells; probe set 202843_at, MCF7 cells, 1 μM, 6 h): 1879
Fold change DNAJB9 (MCF7 cells; probe set 202843_at, b-AP15 vs vehicle): 4
Expression value DNAJB4 (MCF7 cells; probe set 203810_at, MCF7 cells, 1 μM, 6 h): 1955
Expression value DNAJB4 (MCF7 cells; probe set 203811_s_at, MCF7 cells, 1 μM, 6 h): 960
Fold change DNAJB4 (MCF7 cells; probe set 203811_s_at, b-AP15 vs vehicle): 5
Expression value HSPA4L (MCF7 cells; probe set 205543_at, MCF7 cells, 1 μM, 6 h): 5452
Expression value HSPH1 (MCF7 cells; probe set 206976_s_at, MCF7 cells, 1 μM, 6 h): 40974
Fold change HSPH1 (MCF7 cells; probe set 206976_s_at, b-AP15 vs vehicle): 5
Expression value HSPA4 (MCF7 cells; probe set 211016_x_at, MCF7 cells, 1 μM, 6 h): 1803
Fold change HSPA4 (MCF7 cells; probe set 211016_x_at, b-AP15 vs vehicle): 4
Expression value DNAJA4 (MCF7 cells; probe set 225061_at, MCF7 cells, 1 μM, 6 h): 21103
Fold change DNAJA4 (MCF7 cells; probe set 225061_at, b-AP15 vs vehicle): 30
Expression value HSPD1 (MCF7 cells; probe set 241716_at, MCF7 cells, 1 μM, 6 h): 487
Fold change HSPD1 (MCF7 cells; probe set 241716_at, b-AP15 vs vehicle): 6
